Key:
Rattus norvegicus [1] = assay: Increase in O-protein AUC in rat brain at 3 mg/kg, po measured upto 24 hrs; format: ADME, organism-based; conditions: in vivo
[2] = Drug uptake in rat brain at 3 mg/kg, po measured after 8 hrs; format: ADME, organism-based; conditions: in vivo
[3] = AUC (0 to 24 hrs) in rat brain at 3 mg/kg, po measured upto 24 hrs; format: ADME, organism-based; design: dose 3 mg/kg, time < 24 hr, route oral; conditions: in vivo
[4] = Fraction unbound in human plasma at 2.5 uM by equilibrium dialysis; format: ADME, cell-free
Rattus norvegicus [5] = assay: Elevation of O-protein in rat brain at 3 mg/kg, po measured after 24 hrs relative to control; format: functional
[6] = Oral bioavailability in Wistar Han rat at 3 mg/kg; format: ADME, organism-based; conditions: in vivo
[7] = Ratio of drug uptake in rat brain to plasma at 3 mg/kg, po measured after 8 hrs; format: ADME, organism-based; conditions: read-out: BPR
[8] = AUCN in Wistar Han rat at 3 mg/kg, po; format: ADME, organism-based; conditions: in vivo
[9] = Ratio of drug uptake in rat brain to plasma at 3 mg/kg, po measured after 24 hrs; format: ADME, organism-based; conditions: read-out: BPR
[10] = Clearance in Wistar Han rat at 1 mg/kg, iv; format: ADME, organism-based; conditions: in vivo
[11] = molecular target: T1, Beta-hexosaminidase subunit beta (Homo sapiens, UniProt P07686); assay: Inhibition of human beta hexosaminidase assessed as inhibitory constant using 4-methylumbelliferyl N-acetyl-beta-D-glucosaminide dihydrate as substrate measured every 60 sec for 45 mins by fluorescence spectrophotometry
T1 sequence (P07686 whole entry): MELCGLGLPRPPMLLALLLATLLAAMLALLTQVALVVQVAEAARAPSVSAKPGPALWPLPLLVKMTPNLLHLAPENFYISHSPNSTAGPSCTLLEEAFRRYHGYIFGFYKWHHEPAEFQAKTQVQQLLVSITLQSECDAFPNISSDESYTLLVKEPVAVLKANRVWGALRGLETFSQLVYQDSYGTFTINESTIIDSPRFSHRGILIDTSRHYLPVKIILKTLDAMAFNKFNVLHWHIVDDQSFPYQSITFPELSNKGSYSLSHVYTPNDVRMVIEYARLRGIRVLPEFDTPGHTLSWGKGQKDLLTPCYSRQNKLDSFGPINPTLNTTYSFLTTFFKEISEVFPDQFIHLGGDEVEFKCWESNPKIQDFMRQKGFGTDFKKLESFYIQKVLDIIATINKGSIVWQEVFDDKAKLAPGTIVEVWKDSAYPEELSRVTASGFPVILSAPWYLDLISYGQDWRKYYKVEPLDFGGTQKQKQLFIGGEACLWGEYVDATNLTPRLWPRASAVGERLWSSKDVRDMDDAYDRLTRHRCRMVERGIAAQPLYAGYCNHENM

[12] = Tmax in rat brain at 3 mg/kg, po measured upto 24 hrs; format: ADME, organism-based
Rattus norvegicus [13] = assay: Elevation of O-protein in rat brain at 3 mg/kg, po measured after 8 hrs relative to control; format: functional
[14] = Drug uptake in rat brain at 3 mg/kg, po measured after 24 hrs; format: ADME, organism-based; conditions: in vivo
[15] = Fraction unbound in Wistar Han rat plasma at 2.5 uM by equilibrium dialysis; format: ADME, cell-free
Protein O-GlcNAcase [16] = molecular target: T2, Protein O-GlcNAcase (Rattus norvegicus, UniProt Q8VIJ5); assay: Inhibition of OGA in rat PC12 cells assessed as OGlcNAcylated protein level incubated for 24 hrs by ELISA; format: cell-based
T2 sequence (Q8VIJ5 whole entry): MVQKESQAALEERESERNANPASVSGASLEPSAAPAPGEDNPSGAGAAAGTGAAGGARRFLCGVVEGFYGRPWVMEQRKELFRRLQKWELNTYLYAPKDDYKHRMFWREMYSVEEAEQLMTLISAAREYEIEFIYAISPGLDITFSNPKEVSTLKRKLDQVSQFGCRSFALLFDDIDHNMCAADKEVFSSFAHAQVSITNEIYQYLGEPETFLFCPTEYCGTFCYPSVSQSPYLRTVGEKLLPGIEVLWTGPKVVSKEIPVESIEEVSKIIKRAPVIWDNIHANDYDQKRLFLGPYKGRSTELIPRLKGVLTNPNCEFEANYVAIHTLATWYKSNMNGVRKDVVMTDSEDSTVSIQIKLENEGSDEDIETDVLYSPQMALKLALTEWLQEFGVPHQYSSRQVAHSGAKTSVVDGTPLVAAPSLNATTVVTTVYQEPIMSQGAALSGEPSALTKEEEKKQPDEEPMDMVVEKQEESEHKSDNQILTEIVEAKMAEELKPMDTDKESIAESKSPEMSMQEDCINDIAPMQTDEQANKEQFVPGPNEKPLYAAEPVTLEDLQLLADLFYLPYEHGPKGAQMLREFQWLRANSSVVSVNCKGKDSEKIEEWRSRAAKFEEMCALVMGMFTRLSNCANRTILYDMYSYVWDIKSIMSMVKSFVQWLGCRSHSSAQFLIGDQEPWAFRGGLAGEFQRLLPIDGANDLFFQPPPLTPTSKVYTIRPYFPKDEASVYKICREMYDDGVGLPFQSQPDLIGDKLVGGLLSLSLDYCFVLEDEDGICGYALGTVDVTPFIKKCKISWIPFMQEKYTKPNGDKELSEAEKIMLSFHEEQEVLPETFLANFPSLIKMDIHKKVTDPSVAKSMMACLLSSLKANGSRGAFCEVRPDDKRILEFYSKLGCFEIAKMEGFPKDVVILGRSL

[17] = Volume of distribution at steady state in Wistar Han rat at 1 mg/kg, iv or 3 mg/kg, po; format: ADME, organism-based; conditions: in vivo, read-out: Vdss
[18] = Half life in Wistar Han rat at 1 mg/kg, iv; format: ADME, organism-based; conditions: in vivo
Protein O-GlcNAcase [19] = molecular target: T3, Protein O-GlcNAcase (Homo sapiens, UniProt O60502); assay: Inhibition of recombinant human OGA
T3 sequence (O60502 whole entry): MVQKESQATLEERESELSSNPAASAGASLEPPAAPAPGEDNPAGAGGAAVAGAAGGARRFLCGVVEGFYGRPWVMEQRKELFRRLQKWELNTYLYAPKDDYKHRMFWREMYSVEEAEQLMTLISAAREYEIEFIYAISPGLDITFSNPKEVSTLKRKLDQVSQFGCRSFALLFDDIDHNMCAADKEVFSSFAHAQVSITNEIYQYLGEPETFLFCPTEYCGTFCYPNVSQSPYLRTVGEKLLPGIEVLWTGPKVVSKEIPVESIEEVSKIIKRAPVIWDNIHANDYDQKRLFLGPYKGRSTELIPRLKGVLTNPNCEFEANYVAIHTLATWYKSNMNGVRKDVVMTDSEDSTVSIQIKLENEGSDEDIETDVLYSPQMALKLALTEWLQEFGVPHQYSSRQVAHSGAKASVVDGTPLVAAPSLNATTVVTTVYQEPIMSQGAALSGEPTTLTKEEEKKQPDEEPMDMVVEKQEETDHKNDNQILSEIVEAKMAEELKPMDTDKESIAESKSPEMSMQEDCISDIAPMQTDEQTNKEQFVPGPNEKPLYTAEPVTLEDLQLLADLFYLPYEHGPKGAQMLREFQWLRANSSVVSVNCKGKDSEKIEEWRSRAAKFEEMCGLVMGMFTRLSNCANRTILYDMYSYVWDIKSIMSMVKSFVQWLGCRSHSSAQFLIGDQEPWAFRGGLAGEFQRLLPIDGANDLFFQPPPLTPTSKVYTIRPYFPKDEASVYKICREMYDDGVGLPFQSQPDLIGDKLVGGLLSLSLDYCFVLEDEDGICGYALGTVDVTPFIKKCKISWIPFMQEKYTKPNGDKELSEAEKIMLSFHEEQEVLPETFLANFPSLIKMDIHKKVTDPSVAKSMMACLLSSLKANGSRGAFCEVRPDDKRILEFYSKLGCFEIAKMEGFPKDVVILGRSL

[20] = Tmax in rat brain at 10 mg/kg, po measured upto 24 hrs; format: ADME, organism-based
[21] = Half life in Wistar Han rat at 2 mg/kg, iv; format: ADME, organism-based; conditions: in vivo
[22] = Fraction unbound in human plasma; format: ADME, cell-free
[23] = molecular target: Sodium channel protein type 5 subunit alpha (Homo sapiens, UniProt Q14524); assay: Inhibition of Nav1.5 (unknown origin)
Cytochrome P450 2C9 = Cytochrome P450 2C9 (Homo sapiens, UniProt P11712); assay: Inhibition of CYP2C9 (unknown origin); format: ADME
[24] = AUCN in Wistar Han rat at 10 mg/kg, po; format: ADME, organism-based; conditions: in vivo
[25] = Ratio of Cmax in brain to plasma in rat at 10 mg/kg, po; format: ADME, organism-based
[26] = molecular target: Voltage-gated inwardly rectifying potassium channel KCNH2 (Homo sapiens, UniProt Q12809); assay: Displacement of MK-0499 from human ERG
[27] = molecular target: T4, Nuclear receptor subfamily 1 group I member 2 (Homo sapiens, UniProt O75469); assay: Activation of PXR (unknown origin) assessed as CYP3A4 induction
T4 sequence (O75469 whole entry): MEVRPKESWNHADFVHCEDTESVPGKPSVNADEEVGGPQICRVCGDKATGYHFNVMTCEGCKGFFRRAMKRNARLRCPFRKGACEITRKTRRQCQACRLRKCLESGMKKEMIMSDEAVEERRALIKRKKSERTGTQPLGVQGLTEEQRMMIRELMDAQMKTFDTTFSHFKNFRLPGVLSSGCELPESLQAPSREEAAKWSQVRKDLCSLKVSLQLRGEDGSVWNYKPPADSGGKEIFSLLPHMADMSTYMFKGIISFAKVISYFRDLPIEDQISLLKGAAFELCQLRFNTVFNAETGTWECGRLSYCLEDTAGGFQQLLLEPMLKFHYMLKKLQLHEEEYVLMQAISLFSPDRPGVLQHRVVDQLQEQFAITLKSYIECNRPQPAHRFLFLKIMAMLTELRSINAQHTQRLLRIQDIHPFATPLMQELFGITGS

[28] = Volume of distribution at steady state in Wistar Han rat at 2 mg/kg, iv or 10 mg/kg, po; format: ADME, organism-based; conditions: in vivo, read-out: Vdss
[29] = Clearance in Wistar Han rat at 2 mg/kg, iv; format: ADME, organism-based; conditions: in vivo
Cytochrome P450 2D6 = Cytochrome P450 2D6 (Homo sapiens, UniProt P10635); assay: Inhibition of CYP2D6 (unknown origin); format: ADME
MDR1 = assay: Apparent permeability in pig LLC-PK1 cells transfected with MDR1; format: ADME, cell-based, Sus scrofa
Cytochrome P450 3A4 = Cytochrome P450 3A4 (Homo sapiens, UniProt P08684); assay: Inhibition of CYP3A4 (unknown origin); format: ADME
[30] = AUC (0 to 24 hrs) in rat brain at 10 mg/kg, po measured upto 24 hrs; format: ADME, organism-based; design: dose 10 mg/kg, time < 24 hr, route oral; conditions: in vivo
[31] = molecular target: Voltage-dependent L-type calcium channel subunit alpha-1C (Homo sapiens, UniProt Q13936); assay: Inhibition of Cav1.2 (unknown origin)
[32] = Oral bioavailability in Wistar Han rat at 10 mg/kg; format: ADME, organism-based; conditions: in vivo

Chain of Sodium channel protein type 5 subunit alpha (Q14524 whole entry): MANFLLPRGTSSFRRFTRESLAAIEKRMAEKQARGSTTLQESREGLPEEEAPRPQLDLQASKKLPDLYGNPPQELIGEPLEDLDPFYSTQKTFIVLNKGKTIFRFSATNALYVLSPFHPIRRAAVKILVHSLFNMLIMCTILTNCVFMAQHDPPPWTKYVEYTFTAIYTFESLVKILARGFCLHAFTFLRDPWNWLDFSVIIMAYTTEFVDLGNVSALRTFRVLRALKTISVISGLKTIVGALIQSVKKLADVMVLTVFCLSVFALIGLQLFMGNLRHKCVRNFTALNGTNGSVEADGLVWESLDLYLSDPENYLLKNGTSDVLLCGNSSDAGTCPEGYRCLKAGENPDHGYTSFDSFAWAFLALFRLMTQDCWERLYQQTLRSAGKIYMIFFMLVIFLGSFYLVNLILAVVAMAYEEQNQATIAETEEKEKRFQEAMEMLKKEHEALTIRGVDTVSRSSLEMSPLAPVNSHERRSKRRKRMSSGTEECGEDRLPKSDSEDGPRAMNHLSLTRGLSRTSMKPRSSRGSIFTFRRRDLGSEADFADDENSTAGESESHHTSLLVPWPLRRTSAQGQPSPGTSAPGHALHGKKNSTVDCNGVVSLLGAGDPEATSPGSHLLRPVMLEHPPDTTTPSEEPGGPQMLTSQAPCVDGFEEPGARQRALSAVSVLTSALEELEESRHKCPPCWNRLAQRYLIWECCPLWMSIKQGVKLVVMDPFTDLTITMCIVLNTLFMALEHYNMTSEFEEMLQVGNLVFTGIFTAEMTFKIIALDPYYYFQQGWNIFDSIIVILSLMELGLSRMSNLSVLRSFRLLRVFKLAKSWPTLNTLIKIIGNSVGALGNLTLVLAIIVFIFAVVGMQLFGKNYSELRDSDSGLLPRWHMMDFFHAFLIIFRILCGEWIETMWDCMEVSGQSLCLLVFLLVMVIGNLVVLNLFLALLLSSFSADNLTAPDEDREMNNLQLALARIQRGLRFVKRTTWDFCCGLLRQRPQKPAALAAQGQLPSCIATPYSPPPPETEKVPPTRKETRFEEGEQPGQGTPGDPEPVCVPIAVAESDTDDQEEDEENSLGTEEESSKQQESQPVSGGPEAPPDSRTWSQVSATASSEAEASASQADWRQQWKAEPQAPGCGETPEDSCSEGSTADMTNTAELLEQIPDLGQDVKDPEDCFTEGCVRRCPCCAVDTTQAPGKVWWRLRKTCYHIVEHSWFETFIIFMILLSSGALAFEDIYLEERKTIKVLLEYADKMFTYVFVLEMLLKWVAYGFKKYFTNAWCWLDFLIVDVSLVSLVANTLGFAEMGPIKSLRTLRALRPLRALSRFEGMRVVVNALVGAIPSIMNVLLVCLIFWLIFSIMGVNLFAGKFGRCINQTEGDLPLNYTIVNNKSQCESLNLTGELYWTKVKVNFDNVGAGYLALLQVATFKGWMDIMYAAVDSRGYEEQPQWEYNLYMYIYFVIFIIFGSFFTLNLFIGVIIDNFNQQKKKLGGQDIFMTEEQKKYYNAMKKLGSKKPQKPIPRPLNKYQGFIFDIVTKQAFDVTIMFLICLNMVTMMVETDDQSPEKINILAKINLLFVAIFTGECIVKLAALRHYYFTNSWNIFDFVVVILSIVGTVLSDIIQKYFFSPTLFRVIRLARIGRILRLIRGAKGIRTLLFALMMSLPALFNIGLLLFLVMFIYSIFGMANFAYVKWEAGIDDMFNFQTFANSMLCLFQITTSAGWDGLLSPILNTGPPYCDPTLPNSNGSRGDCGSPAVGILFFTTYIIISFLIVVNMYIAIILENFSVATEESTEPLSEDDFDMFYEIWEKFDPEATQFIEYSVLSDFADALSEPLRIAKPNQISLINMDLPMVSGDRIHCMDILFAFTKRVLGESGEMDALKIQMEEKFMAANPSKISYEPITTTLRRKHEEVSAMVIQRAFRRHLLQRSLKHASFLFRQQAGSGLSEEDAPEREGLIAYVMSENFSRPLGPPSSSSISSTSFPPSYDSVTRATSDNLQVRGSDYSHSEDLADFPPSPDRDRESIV
Chain of Voltage-gated inwardly rectifying potassium channel KCNH2 (Q12809 whole entry): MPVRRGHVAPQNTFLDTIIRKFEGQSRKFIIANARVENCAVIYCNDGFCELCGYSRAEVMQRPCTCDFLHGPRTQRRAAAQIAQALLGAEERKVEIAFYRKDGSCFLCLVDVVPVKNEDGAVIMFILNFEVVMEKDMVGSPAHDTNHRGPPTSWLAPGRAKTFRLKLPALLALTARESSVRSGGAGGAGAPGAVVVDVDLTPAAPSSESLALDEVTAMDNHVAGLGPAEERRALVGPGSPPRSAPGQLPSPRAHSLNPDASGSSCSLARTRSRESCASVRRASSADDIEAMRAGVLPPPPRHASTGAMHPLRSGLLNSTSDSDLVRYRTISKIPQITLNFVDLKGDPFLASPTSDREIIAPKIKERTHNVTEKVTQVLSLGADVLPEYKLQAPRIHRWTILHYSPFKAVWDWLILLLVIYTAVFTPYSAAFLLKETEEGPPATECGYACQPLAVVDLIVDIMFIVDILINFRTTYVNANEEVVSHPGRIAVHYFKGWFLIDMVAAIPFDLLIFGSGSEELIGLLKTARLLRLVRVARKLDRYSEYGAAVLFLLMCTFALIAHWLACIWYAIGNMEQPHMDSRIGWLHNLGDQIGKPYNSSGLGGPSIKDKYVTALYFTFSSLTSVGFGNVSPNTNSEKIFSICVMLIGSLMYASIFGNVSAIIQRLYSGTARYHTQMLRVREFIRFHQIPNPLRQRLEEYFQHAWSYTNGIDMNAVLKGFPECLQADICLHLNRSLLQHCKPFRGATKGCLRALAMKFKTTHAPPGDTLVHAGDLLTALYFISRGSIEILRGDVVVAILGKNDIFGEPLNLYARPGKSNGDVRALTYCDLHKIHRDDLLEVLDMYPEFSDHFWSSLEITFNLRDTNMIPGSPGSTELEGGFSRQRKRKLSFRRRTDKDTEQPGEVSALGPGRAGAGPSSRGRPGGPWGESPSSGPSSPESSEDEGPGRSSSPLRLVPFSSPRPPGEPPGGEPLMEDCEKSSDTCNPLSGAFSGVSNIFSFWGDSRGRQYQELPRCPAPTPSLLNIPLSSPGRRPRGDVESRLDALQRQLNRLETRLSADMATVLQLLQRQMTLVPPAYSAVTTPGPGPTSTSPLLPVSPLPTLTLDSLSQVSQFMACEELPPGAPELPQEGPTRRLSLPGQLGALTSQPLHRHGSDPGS
Chain of Cytochrome P450 2D6 (P10635 whole entry): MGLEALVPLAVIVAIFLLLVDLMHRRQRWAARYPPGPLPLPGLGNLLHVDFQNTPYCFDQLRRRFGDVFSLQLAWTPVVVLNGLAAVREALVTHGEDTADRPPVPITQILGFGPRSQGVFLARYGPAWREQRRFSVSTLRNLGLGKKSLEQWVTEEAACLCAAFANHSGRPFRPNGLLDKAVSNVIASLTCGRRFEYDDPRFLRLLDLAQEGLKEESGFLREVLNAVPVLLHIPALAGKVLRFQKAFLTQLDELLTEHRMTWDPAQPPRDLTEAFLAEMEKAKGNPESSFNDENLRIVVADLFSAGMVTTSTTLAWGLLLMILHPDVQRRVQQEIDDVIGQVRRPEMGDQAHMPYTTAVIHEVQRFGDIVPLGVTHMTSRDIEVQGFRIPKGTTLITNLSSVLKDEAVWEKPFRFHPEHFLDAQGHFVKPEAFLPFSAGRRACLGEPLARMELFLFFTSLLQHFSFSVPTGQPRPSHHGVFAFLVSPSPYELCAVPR
Chain of Cytochrome P450 3A4 (P08684 whole entry): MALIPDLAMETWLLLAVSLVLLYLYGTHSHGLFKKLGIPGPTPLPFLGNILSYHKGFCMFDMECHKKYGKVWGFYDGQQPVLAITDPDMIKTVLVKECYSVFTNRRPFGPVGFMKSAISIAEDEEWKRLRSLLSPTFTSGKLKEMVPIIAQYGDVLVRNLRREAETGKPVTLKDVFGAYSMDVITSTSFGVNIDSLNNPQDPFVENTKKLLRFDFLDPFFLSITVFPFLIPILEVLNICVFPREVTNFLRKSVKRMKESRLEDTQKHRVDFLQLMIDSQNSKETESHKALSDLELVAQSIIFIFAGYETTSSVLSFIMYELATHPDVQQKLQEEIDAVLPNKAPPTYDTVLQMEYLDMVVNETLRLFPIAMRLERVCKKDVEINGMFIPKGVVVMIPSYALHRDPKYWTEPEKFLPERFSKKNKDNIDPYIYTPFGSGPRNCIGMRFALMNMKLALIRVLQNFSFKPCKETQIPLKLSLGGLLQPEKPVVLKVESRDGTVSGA
Chain of Cytochrome P450 2C9 (P11712 whole entry): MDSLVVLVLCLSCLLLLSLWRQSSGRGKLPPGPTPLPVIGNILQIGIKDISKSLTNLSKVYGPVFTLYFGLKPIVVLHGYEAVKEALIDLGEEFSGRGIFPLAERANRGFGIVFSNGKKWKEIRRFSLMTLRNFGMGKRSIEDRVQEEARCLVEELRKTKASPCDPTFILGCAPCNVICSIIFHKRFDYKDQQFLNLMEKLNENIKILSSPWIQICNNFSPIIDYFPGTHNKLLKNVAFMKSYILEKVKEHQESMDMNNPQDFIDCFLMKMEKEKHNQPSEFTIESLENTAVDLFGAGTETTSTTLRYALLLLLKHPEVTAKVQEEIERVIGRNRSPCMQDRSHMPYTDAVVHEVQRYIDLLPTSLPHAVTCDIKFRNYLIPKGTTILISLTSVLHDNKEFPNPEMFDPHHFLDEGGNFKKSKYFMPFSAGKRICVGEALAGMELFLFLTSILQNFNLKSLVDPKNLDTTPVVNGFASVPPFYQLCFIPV

## CNC1=N[C@@H]2[C@H](F)[C@H](O)[C@@H](CO)O[C@@H]2S1
Rattus norvegicus [1]
  fold change (FC): 18.44
[2]
  Drug uptake: 0.099 nmol/g
[3]
  AUC: 1.963 nM·h/g
[4]
  fraction unbound at 2.5 µM: 0.84
Rattus norvegicus [5]
  fold change (FC): 1.45
[6]
  bioavailability: 70.4%
[7]
  Kp at 8 h: 1.67
[8]
  AUC/dose: 1.43 µM·kg·h/mg
[9]
  Kp at 24 h: ≥ 29.5
[10]
  clearance: 36.8 mL/min/kg
[11]
  Ki: > 10 µM
[12]
  Tmax: 8 h
Rattus norvegicus [13]
  fold change (FC): 2.13
[14]
  Drug uptake: 0.074 nmol/g
[15]
  fraction unbound at 2.5 µM: 0.96
Protein O-GlcNAcase [16]
  EC50: 0.0106 µM
[17]
  Vd: 2 L/kg
[18]
  half-life: 1.27 h
Protein O-GlcNAcase [19]
  Ki: 0.00053 µM

## CCNC1=N[C@@H]2[C@@H](O)[C@H](O)[C@@H](CO)O[C@@H]2S1
[20]
  Tmax: 8 h
[21]
  half-life: 1.4 h
[2]
  Drug uptake: 0.185 nmol/g
[22]
  fraction unbound: 0.76
[23]
  IC50: > 30 µM
Cytochrome P450 2C9
  IC50: > 50 µM
[4]
  fraction unbound at 2.5 µM: 0.76
[24]
  AUC/dose: 0.8 µM·kg·h/mg
[25]
  Kp: 0.1
[26]
  IC50: > 30 µM
[27]
  EC50: > 30 µM
[28]
  Vd: 1.5 L/kg
[7]
  Kp at 8 h: 0.94
[9]
  Kp at 24 h: > 2.7
[29]
  clearance: 25 mL/min/kg
Cytochrome P450 2D6
  IC50: > 50 µM
[11]
  Ki: > 10 µM
MDR1
  Papp: ≤ 1 ×10⁻⁶ cm/s
[14]
  Drug uptake: 0.051 nmol/g
[15]
  fraction unbound at 2.5 µM: 0.73
Cytochrome P450 3A4
  IC50: > 50 µM
[30]
  AUC: 1.14 nM·h/g
[31]
  IC50: > 30 µM
[32]
  bioavailability: 30%

Source: ChEMBL document CHEMBL4354805, “Discovery of MK-8719, a Potent O-GlcNAcase Inhibitor as a Potential Treatment for Tauopathies” (J Med Chem, 2019)
